Results as given in patent US20130029981A1, “COMPOUNDS, COMPOSITIONS, AND METHODS FOR CONTROLLING BIOFILMS” (Katholieke Universiteit Leuven, priority 2009, published 2013).
Read-outs that look alike come from different tables or passages of the source.

Assays:
[1] = system: Pseudomonas aeruginosa PA14; experiment: Static peg assay for prevention of biofilm formation (Calgary device, crystal violet); format: cell-based
Experimental: (§1) Evaluation of the biofilm inhibitory activity of some substituted 2-amino-1H-imidazoles of the invention was carried out by growing up biofilms of S. Typhimurium ATCC14028 or SL1344 or Pseudomonas aeruginosa PA14 in the presence of different concentrations (1/2 dilution series) of biofilm inhibitors, by using the Calgary biofilm device. After an incubation period of 24 hours at 25° C. or 37° C. or 48 hours at 16° C. the biofilms were visualized by crystal violet staining. In the next step the stain was extracted from the biofilm with 30% acetic acid. The absorbance of the resolubilized stain at 570 nm is a measure of the amount of biofilm formed.
The device used for Pseudomonas aeruginosa biofilm formation is the same platform carrying polystyrene pegs as described above for Salmonella Typhimurium.
Two-fold serial dilutions of the compounds in 100 μl liquid broth per well were prepared in the microtiter plate. Subsequently, an overnight culture of P. aeruginosa PA14 (grown up in TSB medium) was diluted 1:100 into liquid broth and 100 μl was added to each well of the microtiter plates, resulting in a total amount of 200 μl medium per well. The pegged lid was placed on the microtiter plate and the plate was incubated for 24 hours at 25° C., 30° C. or 37° C. without shaking. During this incubation period biofilms were formed on the surface of the pegs. The liquid broth used for the tests at 25° C. was TSB 1/20. The tests at 37° C. were performed in CFA and/or LBNS broth. During incubation at 30° C. and 37° C. the plates were placed in a humidity controlled container to prevent evaporation of the growth medium. Quantification of biofilm formation was performed similarly as described previously for the S. Typhimurium biofilm assays.
as §1, with “imidazo[1,2-a]pyrimidinium bromide salts” for “2-amino-1H-imidazoles”
as §1, with “substituted imidazo[1,2-a]-pyrimidinium bromide and perchlorate salts produced according to examples 3 and 5” for “substituted 2-amino-1H-imidazoles of the invention”, “C.” for “C. or 37° C. or 48 hours at 16° C.”, “nm was taken as” for “nm is”

[2] = system: S. Typhimurium ATCC14028; experiment: as above; format: cell-based, Salmonella Typhimurium
How it was run: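 Calgary 96-peg device, ca. 10^6 cells of ATCC14028 per well in TSB 1/20 for 24 h at 25° C (or 48 h at 16° C, medium and compound renewed at 24 h), or in CFA broth for 24 h at 37° C, static, with two-fold compound dilutions. Crystal violet stain, acetic acid extraction, OD570. IC50 from 2–3 independent experiments.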

[3] = 25° C., 24 hours, Table 15, read-out: (2) IC50 (biofilm inhibition)
[4] = 25° C., Table 17, read-out: P. aeruginosa IC50 (biofilm formation)
[5] = 25° C., 24 hours, Table 15, read-out: (1) IC50 (biofilm inhibition)
[6] = 25° C., Table 17, read-out: S. Typhimurium IC50 (biofilm formation)
[7] = 25° C., Table 18, read-out: P. aeruginosa IC50 (biofilm formation)
[8] = 25° C., Table 18, read-out: S. Typhimurium IC50 (biofilm formation)
[9] = P. aeruginosa PA14, 25° C., read-out: P. aeruginosa IC50 (biofilm formation)
[10] = S. Typhimurium ATCC 14028, 25° C., read-out: S. Typhimurium IC50 (biofilm formation)
[11] = Table 21, P. aeruginosa PA14, 25° C., read-out: P. aeruginosa IC50 (biofilm formation)
[12] = Table 21, S. Typhimurium ATCC14028, 25° C., read-out: S. Typhimurium IC50 (biofilm formation)
[13] = 25° C., Table 22, read-out: P. aeruginosa IC50 (biofilm formation)
[14] = 25° C., Table 22, read-out: S. Typhimurium IC50 (biofilm formation)

CCCCCCCCN1c2nccc[n+]2CC1(O)c1ccc(-c2ccc([N+](=O)[O-])cc2)cc1 (centres unmarked) [Compound 53]
IC50 [1, 3]: 119 µM
IC50 [1, 4]: 215 µM
IC50 [2, 5]: 31 µM
IC50 [2, 6]: 31 µM

CCCCCCCCN1c2nccc[n+]2CC1(O)c1ccc(S(C)(=O)=O)cc1 (centres unmarked) [Compound 54]
IC50 [1, 3]: 11.5 µM
IC50 [1, 4]: 99.9 µM
IC50 [2, 5]: 60.3 µM
IC50 [2, 6]: 60.3 µM

CCCCCCCCN1c2nccc[n+]2CC1(O)c1ccc(-c2ccc(-c3ccccc3)cc2)cc1 (centres unmarked) [Compound 55]
IC50 [1, 3]: 26.8 µM
IC50 [1, 4]: 336 µM
IC50 [2, 5]: ~52.8 µM
IC50 [2, 6]: ~52.8 µM

CCCCCCCCN1c2nccc[n+]2CC1(O)c1cccc(Br)c1 (centres unmarked) [Compound 56]
IC50 [1, 3]: ~13.2 µM
IC50 [1, 4]: 29 µM
IC50 [2, 5]: 7.13 µM
IC50 [2, 6]: 7.1 µM

OC1(c2ccccc2)C[n+]2cccnc2N1C1CCC1 (centres unmarked) [Compound 57]
IC50 [1, 7]: > 400 µM
IC50 [2, 8]: 493 µM

OC1(c2ccccc2)C[n+]2cccnc2N1C1CCCCC1 (centres unmarked) [Compound 58]
IC50 [1, 7]: 87 µM
IC50 [2, 8]: 139 µM

OC1(c2ccccc2)C[n+]2cccnc2N1C1CCCCCC1 (centres unmarked) [Compound 59]
IC50 [1, 3]: 5.81 µM
IC50 [1, 7]: 250 µM
IC50 [2, 5]: 84.2 µM
IC50 [2, 8]: 84.2 µM

OC1(c2ccccc2)C[n+]2cccnc2N1C1CCCCCCC1 (centres unmarked) [Compound 60]
IC50 [1, 3]: 4.63 µM
IC50 [1, 7]: 176 µM
IC50 [2, 5]: 58.4 µM
IC50 [2, 8]: 58.4 µM

OC1(c2ccc(Cl)cc2)C[n+]2cccnc2N1C1CCC1 (centres unmarked) [Compound 62]
IC50 [1, 7]: 372 µM
IC50 [2, 8]: 121 µM

OC1(c2ccc(Cl)cc2)C[n+]2cccnc2N1C1CCCC1 (centres unmarked) [Compound 63]
IC50 [1, 7]: 163 µM
IC50 [2, 8]: 41.8 µM

OC1(c2ccc(Cl)cc2)C[n+]2cccnc2N1C1CCCCCC1 (centres unmarked) [Compound 65]
IC50 [1, 3]: 63.8 µM
IC50 [1, 7]: 76.2 µM
IC50 [2, 5]: 27.9 µM
IC50 [2, 8]: 27.9 µM

OC1(c2ccc(Cl)cc2)C[n+]2cccnc2N1C1CCCCCCC1 (centres unmarked) [Compound 66]
IC50 [1, 3]: 15.6 µM
IC50 [1, 7]: 22.7 µM
IC50 [2, 5]: 12.6 µM
IC50 [2, 8]: 12.6 µM

OC1(c2ccc(Cl)cc2)C[n+]2cccnc2N1C1CCCCCCCCCCC1 (centres unmarked) [Compound 67]
IC50 [1, 7]: 6.8 µM
IC50 [2, 8]: 5.6 µM

Nc1nc(-c2ccccc2)c[nH]1 [Compound 81]
IC50 [1, 9]: 72.6 µM
IC50 [2, 10]: 130 µM

CC(C)Nc1nc(-c2ccccc2)c[nH]1 [Compound 82]
IC50 [1, 9]: 261 µM
IC50 [2, 10]: > 800 µM

CCCCNc1nc(-c2ccccc2)c[nH]1 [Compound 83]
IC50 [1, 9]: 31.8 µM
IC50 [2, 10]: 25.3 µM

CC(C)CNc1nc(-c2ccccc2)c[nH]1 [Compound 84]
IC50 [1, 9]: 1.2 µM
IC50 [2, 10]: 4.9 µM

Nc1nc(-c2ccc(Cl)cc2)c[nH]1 [Compound 85]
IC50 [1, 9]: 3.5 µM
IC50 [2, 10]: 16 µM

CC(C)CNc1nc(-c2ccc(Cl)cc2)c[nH]1 [Compound 86]
IC50 [1, 9]: 0.9 µM
IC50 [2, 10]: 2 µM

CCCCCNc1nc(-c2ccc(Cl)cc2)c[nH]1 [Compound 87]
IC50 [1, 9]: ~6.35 µM
IC50 [2, 10]: > 400 µM

CCCCCCCCNc1nc(-c2ccc(Cl)cc2)c[nH]1 [Compound 88]
IC50 [1, 9]: ~1.6 µM
IC50 [2, 10]: > 400 µM

CNc1nc(-c2ccc([N+](=O)[O-])cc2)c[nH]1 [Compound 91]
IC50 [1, 9]: 56.1 µM
IC50 [2, 10]: 170 µM

CCNc1ncc(-c2ccc([N+](=O)[O-])cc2)[nH]1 [Compound 92]
IC50 [1, 9]: 104 µM
IC50 [2, 10]: 171 µM

CCCCNc1ncc(-c2ccc([N+](=O)[O-])cc2)[nH]1 [Compound 93]
IC50 [1, 9]: > 800 µM
IC50 [2, 10]: 702 µM

CC(C)CNc1ncc(-c2ccc([N+](=O)[O-])cc2)[nH]1 [Compound 94]
IC50 [1, 9]: 22.9 µM
IC50 [2, 10]: 3.8 µM

CCCCCCCCNc1ncc(-c2ccc([N+](=O)[O-])cc2)[nH]1 [Compound 95]
IC50 [1, 9]: ~25 µM
IC50 [2, 10]: 10.9 µM

Nc1ncc(-c2ccc(F)cc2)[nH]1 [Compound 96]
IC50 [1, 9]: 15 µM
IC50 [2, 10]: 84.4 µM

CNc1ncc(-c2ccc(F)cc2)[nH]1 [Compound 97]
IC50 [1, 9]: 25.2 µM
IC50 [2, 10]: 102 µM

CCCCNc1ncc(-c2ccc(F)cc2)[nH]1 [Compound 98]
IC50 [1, 9]: 10.8 µM
IC50 [2, 10]: 15.5 µM

CCCCCCNc1ncc(-c2ccc(F)cc2)[nH]1 [Compound 99]
IC50 [1, 9]: ~12.5 µM
IC50 [2, 10]: > 400 µM

CCCCCCCCNc1ncc(-c2ccc(F)cc2)[nH]1 [Compound 100]
IC50 [1, 9]: ~3.1 µM
IC50 [2, 10]: > 400 µM

Nc1ncc(-c2ccc(Br)cc2)[nH]1 [Compound 101]
IC50 [1, 9]: 3.2 µM
IC50 [2, 10]: 47.9 µM

CCCCNc1ncc(-c2ccc(Br)cc2)[nH]1 [Compound 102]
IC50 [1, 9]: 9.8 µM
IC50 [2, 10]: 7.1 µM

CC(C)CNc1ncc(-c2ccc(Br)cc2)[nH]1 [Compound 103]
IC50 [1, 9]: 1.2 µM
IC50 [2, 10]: 2.9 µM

CCCCCNc1ncc(-c2ccc(Br)cc2)[nH]1 [Compound 104]
IC50 [1, 9]: 10.2 µM
IC50 [2, 10]: 3.1 µM

CCCCCCCCNc1ncc(-c2ccc(Br)cc2)[nH]1 [Compound 105]
IC50 [1, 9]: > 800 µM
IC50 [2, 10]: 1.9 µM

COc1ccc(-c2cnc(N)[nH]2)cc1 [Compound 106]
IC50 [1, 9]: 186 µM
IC50 [2, 10]: 120 µM

CCCCNc1ncc(-c2ccc(OC)cc2)[nH]1 [Compound 107]
IC50 [1, 9]: 46.3 µM
IC50 [2, 10]: 52.6 µM

CCCCCCCCNc1ncc(-c2ccc(OC)cc2)[nH]1 [Compound 108]
IC50 [1, 9]: > 800 µM
IC50 [2, 10]: ~400 µM

CCCNc1ncc(-c2ccc(Cl)c(Cl)c2)[nH]1 [Compound 109]
IC50 [1, 9]: 27.7 µM
IC50 [2, 10]: 10.9 µM

CCCCCCCCNc1ncc(-c2ccc(Cl)c(Cl)c2)[nH]1 [Compound 111]
IC50 [1, 9]: > 800 µM
IC50 [2, 10]: 118 µM

CS(=O)(=O)c1ccc(-c2cnc(N)[nH]2)cc1 [Compound 115]
IC50 [1, 9]: > 800 µM
IC50 [2, 10]: > 800 µM

CCCCCCCCNc1ncc(-c2ccc(S(C)(=O)=O)cc2)[nH]1 [Compound 116]
IC50 [1, 9]: ~3.1 µM
IC50 [2, 10]: 41.8 µM

Clc1ccc(-c2cnc(NC3CCCC3)[nH]2)cc1 [Compound 118]
IC50 [1, 11]: 13.5 µM
IC50 [2, 12]: 4.4 µM

O=[N+]([O-])c1ccc(-c2cnc(NC3CCCC3)[nH]2)cc1 [Compound 119]
IC50 [1, 11]: 20.2 µM
IC50 [2, 12]: 11.8 µM

Brc1ccc(-c2cnc(NC3CCCC3)[nH]2)cc1 [Compound 120]
IC50 [1, 11]: 7.2 µM
IC50 [2, 12]: 12.1 µM

Clc1ccc(-c2cnc(NC3CCCC3)[nH]2)cc1Cl [Compound 121]
IC50 [1, 11]: 7.9 µM
IC50 [2, 12]: 5.7 µM

Clc1ccc(-c2cnc(NC3CCCCC3)[nH]2)cc1 [Compound 122]
IC50 [1, 11]: ~25 µM
IC50 [2, 12]: > 800 µM

O=[N+]([O-])c1ccc(-c2cnc(NC3CCCCC3)[nH]2)cc1 [Compound 123]
IC50 [1, 11]: ~25 µM
IC50 [2, 12]: 36.7 µM

O=[N+]([O-])c1cccc(-c2cnc(NC3CCCCC3)[nH]2)c1 [Compound 124]
IC50 [1, 11]: 4.4 µM
IC50 [2, 12]: 630 µM

COc1ccc(-c2cnc(NC3CCCCC3)[nH]2)cc1 [Compound 125]
IC50 [1, 11]: 54.8 µM
IC50 [2, 12]: ~378 µM

CSc1ccc(-c2cnc(NC3CCCCC3)[nH]2)cc1 [Compound 126]
IC50 [1, 11]: 15.8 µM
IC50 [2, 12]: 191 µM

COc1ccc(CNc2ncc(-c3ccc([N+](=O)[O-])cc3)[nH]2)cc1 [Compound 128]
IC50 [1, 13]: > 800 µM
IC50 [2, 14]: > 800 µM

COc1cccc(CCNc2ncc(-c3ccc([N+](=O)[O-])cc3)[nH]2)c1 [Compound 129]
IC50 [1, 13]: 3.7 µM
IC50 [2, 14]: 19.1 µM
IC50 ([2]; S. Typhimurium ATCC 14028, 25° C., read-out: IC50 for biofilm inhibition (25° C.)): 15 µM
